Patent publication US20220347085A1, “REPELLENT COMPOSITION AND USES” (Université Bourgogne, priority 2019, published 2022)

Columns and labels:
Type in all cases: in vivo
[1] = test system: Drosophila suzukii; assay: Courtship of male Drosophila suzukii towards females, olfactory exposure; details: compared with solvent alone, 10 min observation
Experimental: Drosophilae (Drosophila melanogaster) aged from 3 to 9 days are used for the courtship tests according to the method described above.
Naive males were isolated in tubes, individually, upon emerging from their puparium.
The females were selected to be virgin and were stored in tubes of 10 individuals. These tubes were placed in an inclined manner in incubators, for which a temperature of 25° C. was kept constant. A 12 hour-12 hour day/night cycle was applied. The courtship tests were carried out in the morning, between 1 and 3 hours after the start of the day cycle.
At the time of the test, a 6 mm disk of filter paper (Whatman, filter paper 42) was deposited per alveolus of the device for studying the courtship behavior. Each alveolus was cylindrical, transparent and closed, and of a volume of 1.52 or 0.9 cm^3. FIG. 16 is a schematic representation of an alveolus of the device used.
The paper was then soaked in 10 μl of a composition of 0.1%, 0.5% or 1% propionic acid, or 0.1%, 0.5% or 1% butyric acid, or a mixture comprising 0.1% propionic acid and 0.1% butyric acid, 0.25% propionic acid and 0.25% butyric acid or 0.5% propionic acid and 0.5% butyric acid. A gauze (netting) makes it possible to physically isolate the drosophilae from the odor. 6 pairs (one per alveolus) were observed independently. Each pair was made up of one male and one intact female, each originating from the tubes mentioned above.
The behavior was filmed for 10 minutes, under white light, using a Sony HDR-XR550 camera. Each film was recorded and then analyzed. For each concentration of the compositions used, the number of pairs of flies was, respectively, 33, 39, 27, 38, 33, 27, 12, 6 and 12.
A negative control was carried out comprising only the solvent, i.e. paraffin oil, in order to verify the absence of an effect of the solvent on the flies.
A courtship percentage was calculated, and represents the time during which the male courts the female during the 10 minutes of observation (recording). The courtship of the Drosophila suzukii is decomposed into recognizable stereotypical events, and described precisely in scientific literature (Revadi S et al., Insects 2015 [4]). Statistical tests, i.e. a Kruskal-Wallis test followed by a post-hoc Dunn's Multiple Comparison Test, were carried out (GraphFad, Prism6) in order to evaluate the influence, on the behavior, of the composition in which the paper is soaked; this involving a release of volatile compounds and an odor perceived by the drosophilae.

[2] = test system: Drosophila melanogaster; assay: Courtship of male Drosophila melanogaster towards females, olfactory exposure
Experimental: 1.1. Drosophila melanogaster
Drosophilae (Drosophila melanogaster) aged from 3 to 9 days are used for the courtship tests as described Grosjean et al. Nat. Neurosci. 2008 [1] and Grosjean et al. Nature 2011 [2].
Naive males were isolated in tubes, individually, upon emerging from their puparium. The females were selected to be virgin and were stored in tubes of 10 individuals. These tubes were placed in incubators, for which a temperature of 25° C. was kept constant. A 12 hour/12 hour day/night cycle was applied. The courtship tests were carried out in the morning, between 1 and 3 hours after the start of the day cycle.
These tests were conducted in devices made up of 6 cylindrical, transparent, and closed alveolae (see FIG. 15) of a volume of […]. A disk of filter paper (Whatman, filter paper 42) of 6 mm in diameter is deposited on the base thereof. Said paper is soaked in 10 μl of a composition comprising propionic acid and/or butyric acid diluted in paraffin oil (solvent). The different compositions used comprised, respectively, 0.5% or 1% propionic acid, 0.5% or 1% butyric acid. For each concentration, the number of pairs of flies tested was, respectively, 23, 23, 19 and 19. At the time of the test, 1 pair per alveolus was introduced into the behavior device (i.e. 6 pairs). Said pair was made up of one male and one female, each originating from the tubes mentioned above. The drosophilae were physically isolated from the odor source (said paper) by a netting which prevents any direct contact, the female had been decapitated but remained alive. In addition, the device was illuminated by red light (red far from the wavelength of between 625 and 630 nm) so as to eliminate any behavior associated with the visual perception which, in D. melanogaster, is between 300 and 550 nm)). Thus, the behavior observed depends only on the olfactory perception by the male of the compound introduced into the device at the time of the assembly thereof.
The behavior was filmed for 10 minutes, using a Sony HDR-XR550 camera. Each film was recorded and kept for subsequent analysis.
A proportion of courtship, expressed as a percentage, was then calculated, and represents the time during which the male courts the female during the 10 minutes of recording the test. The courtship of the Drosophila melanogaster is decomposed into recognizable stereotypical events, and described precisely in scientific literature (Greenspan & Ferveur, Annu. Rev. Genet, 2000 [3]). A statistical test (Mann-Whitney test (nonparametric test, GraphPad, Prism8)) was carried out in order to evaluate the influence, on the behavior, of the composition in which the paper is soaked; this involving a release of volatile compounds and an odor perceived by the drosophilae. […]

[3] = test system: Drosophila suzukii; assay: Anesthesia test, Drosophila suzukii; details: 2% in paraffin oil
Experimental: (§1) The devices used were similar to the devices for studying the courtship (example 1 above), except for the volume of the space into which the files were introduced, which was 45.24 or 22.62 cm^3. 9 discs of filter paper (Whatman, filter paper 42), each soaked in 10 μl of a composition comprising butyric acid and/or propionic acid and/or a derivative of propionic acid diluted in paraffin oil were deposited in the device. The different compositions used comprised, respectively, 2% propionic acid or 2% butyric acid or 5% ethyl propanoate or 10% ethyl propanoate or 30% ethyl propanoate. For each composition, the number of flies was, respectively, 30 and 24 males, 30 and 11 females for Drosophila melanogaster, and 24, 16 and 4 males, 28, 26, 6, 5 and 4 females for Drosophila suzukii. In order to avoid any contact of the flies with the soaked disks of paper, a gauze (netting) was arranged above said papers. The drosophilae could move freely on said gauze. The quantity of compound, butyric acid or propionic acid, or of ethyl propanoate (odor) volatilized in the behavior chamber was equivalent to that of the device used for the courtship. Likewise, the flies were never in direct contact with the composition (no taste perception), only with the volatile particles (olfactory perception). The flies tested were introduced simultaneously, by group, into the enclosure. Their behavior was filed for 10 minutes, and a time required for leading to anesthesia was calculated over this period, depending on the concentration of butyric acid or propionic acid or ethyl propanoate used. The flies were considered anesthetized when they stopped moving and fell on their side.

[4] = test system: Drosophila melanogaster; assay: Anesthesia test, Drosophila melanogaster; details: 2% in paraffin oil
Experimental: as §1

[5] = 1% in paraffin oil, compared with solvent alone, red light, decapitated female

## CCC(=O)O [propionic acid]
[1]; 0.5% (v/v) in paraffin oil
  proportion of courtship of males towards females: significantly reduced
[1]; 1% (v/v) in paraffin oil
  proportion of courtship of males towards females: significantly reduced
[2]; [5]
  proportion of courtship of males towards females: significantly changed
[2]; 1% in solvent, compared with 0.5% in solvent
  proportion of courtship of males towards females: significantly reduced
[3]; female flies (FIG. 17)
  time elapsed leading to anesthesia: approximately 4 minutes
[3]; male flies and female flies
  time elapsed leading to anesthesia: approximately 4 minutes
[4]; female flies
  time elapsed leading to anesthesia: approximately 5 minutes
[4]; male flies
  time elapsed leading to anesthesia: approximately 3 minutes

## CCCC(=O)O [butyric acid]
[1]; 0.5% (v/v) in paraffin oil
  proportion of courtship of males towards females: significantly reduced
[1]; 1% (v/v) in paraffin oil
  proportion of courtship of males towards females: significantly reduced
[2]; 0.5% in paraffin oil, compared with solvent alone
  proportion of courtship of males towards females: significantly reduced
[2]; [5]
  proportion of courtship of males towards females: significantly reduced
[3]; female flies (FIG. 17)
  time elapsed leading to anesthesia: approximately 5 minutes
[3]; male flies and female flies
  time elapsed leading to anesthesia: approximately 5 minutes
[4]; female flies
  time elapsed leading to anesthesia: approximately 17 minutes
[4]; male flies
  time elapsed leading to anesthesia: approximately 5 minutes
